The record followed here is paper PMC3256143, “Blue News Update: BODIPY-GTP Binds to the Blue-Light Receptor YtvA While GTP Does Not” (PLoS ONE, 2012).

The target in experiment [1] is T1, YtvA (Bacillus subtilis, UniProt O34627, M1G).
T1 construct: gene pfyP; full-length YtvA and isolated STAS domain (amino acids 148–261)
T1 sequence (O34627 1-261 M1G): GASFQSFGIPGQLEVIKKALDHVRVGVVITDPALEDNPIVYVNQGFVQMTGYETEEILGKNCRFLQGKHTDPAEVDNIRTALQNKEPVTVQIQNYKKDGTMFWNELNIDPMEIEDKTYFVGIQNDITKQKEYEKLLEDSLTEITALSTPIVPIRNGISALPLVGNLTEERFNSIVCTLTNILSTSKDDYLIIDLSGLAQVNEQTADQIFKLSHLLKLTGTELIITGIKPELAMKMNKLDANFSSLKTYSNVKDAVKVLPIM
Put plainly: fluorescence enhancement on adding protein ([…] YtvA, […] dye). The class given is binding.

Experiment [2] deals with T2, YtvA (Bacillus subtilis, UniProt O34627, M1G).
T2 construct: gene pfyP; full-length YtvA (Met1 replaced by Gly)
The experiment can be described thus: ITC; also 1H-15N TROSY/HSQC, STD and WaterLOGSY NMR, fluorescence. Format: binding. (Isothermal titration calorimetry measures the heat released or taken up as one component is titrated into another.)

Consider `COC(=O)COc1ccc(-c2ccc3n2[B-](F)(F)[N+]2=C(c4cccs4)C=CC2=C3)cc1` [BODIPY methyl ester], for which, in experiment [1], the “fluorescence enhancement on adding protein (12 μM YtvA, 2.2 μM dye)” value is on record as “This suggests that only the fluorophore is binding to the protein but the GTP part does not”.
In general, Kd refers to a measure of binding affinity in units of concentration. Read a low Kd as higher affinity. The molecule `Nc1nc2c(ncn2[C@@H]2O[C@H](COP(=O)(O)OP(=O)(O)OP(=O)(O)O)[C@@H](O)[C@H]2OC(=O)NCCNC(=O)COc2ccc(C3=[N+]4C(=Cc5ccc(-c6cccs6)n5[B-]4(F)F)C=C3)cc2)c(=O)[nH]1` [BODIPY-GTP] gave a Kd in experiment [2] of 2.5 µM. This counts as single-digit micromolar.
